Test results: article PMC13534789, “Molecular Glue Degraders Enhance CAPRIN1‐Dependent Lysosomal Degradation of APP and Reduce Amyloid β in Alzheimer's Disease” (Advanced Science, 2026)
Where two headings read alike, the source gives them in different places.

Key:
APP = APP (Homo sapiens, UniProt P05067); experiment: Western blot of APP in iPSC-derived neurons; format: cell-based; design: endogenous in cells; host or cells: iPSC-derived neurons (AG27606-Ns, sAD2.3-Ns and others); settings: for APP-degrading activity after Bafilomycin A1 pretreatment: Baf A1 20 nM, AG27606-Ns, sAD2.3-Ns, HEK-APP695 cells; for APP-degrading activity after Bafilomycin A1 pretreatment / APP-degrading activity after MG132 pretreatment: 30 min, then compound 10 µM, 24 h; for APP-degrading activity after MG132 pretreatment: MG132 5 µM
APP695‐HiBiT = biological target: T1, APP695‐HiBiT (Homo sapiens, UniProt P05067+Q14444); experiment: APP695-HiBiT luminescence assay in HEK293 cells; format: cell-based
T1 construct: expressed in transfected cells; host or cells: HEK293, lentiviral transduction, hygromycin-selected single clones (#3, #9)
From the text: We previously reported CAPRIN1‐targeted molecular degraders that bind to CAPRIN1 and F‐box protein 42 (FBXO42), promoting FBXO42‐mediated proteasomal degradation of small ubiquitin‐related modifier 1 (SUMO1), an oncoprotein, in human cancers. CAPRIN1 is a neuronal RNA‐binding protein involved in neuronal development and neurodegeneration. CAPRIN1 was reported to be a binding partner of APP [28]. Therefore, we thought to investigate whether CAPRIN1‐targeted degraders could promote APP degradation in APP‐expressing cell models. To establish screening models, we tagged wild‐type APP695 (APP695), the predominant neuronal isoform, with the small HiBiT tag (APP695‐HiBiT) and expressed APP695‐HiBiT in HEK293 cells. Cell lysates were analyzed using a luminescence‐based assay of HiBiT‐tagged protein [30], identifying clone #3 and #9 with robust APP695‐HiBiT expression (Figure S1A). Western blotting and ELISA confirmed intracellular expression of APP695 and extracellular release of Aβ42 in these clones (Figure S1B,C).
HEK293 cells were purchased from the American Type Culture Collection (ATCC). […] Once expanded, clones were analyzed by ELISA for amyloid beta 42 (Aβ42), western blot for APP expression, and Hibit‐lytic assay (Promega). […]

P-gp (MDR1) = experiment: MDR1-MDCKII permeability assay; format: in vitro ADME; settings: dog, MDCK-MDR1, pH 7.4, MDR1-MDCKII, 2 µM, 2.0 h, n = 2; for Papp A→B at 2 h, 2 µM: read-out: Apical to basal (AP-BL) Papp; for Papp B→A at 2 h, 2 µM: read-out: Basal to apical (BL-AP) Papp
Experimental: (§1) MDR1‐MDCKII assay was processed by Sai Life Sciences Pvt. Ltd. Briefly, MDR1‐MDCKII cells were seeded onto the polycarbonate membranes in the 24‐well insert system at 0.12 × 10^6 cells/well and cultured for 8 days until confluence before being used for the transport studies. Test compounds were diluted with the transport buffer (HPSS with 10 mM HEPES, pH 7.4) from a DMSO stock solution to a concentration of 2 µM (DMSO < 1%) and applied to the apical or basolateral side of the cell monolayer. The plate was incubated for 2.0 h in a CO2 incubator at 37±1°C, with 5% CO2 at saturated humidity without shaking. Permeability was measured in duplicate (n = 2) in both A→B and B→A directions. Loperamide (P‐gp efflux substrate) was tested at 2 µM bidirectionally, Verapamil was used as P‐gp inhibitor. While Atenolol (low permeability marker) and Propranolol (high permeability marker) were tested at 2.00 µM in the A to B direction in duplicate. Test and reference compounds were quantified by LC‐MS/MS analysis based on the peak area ratio of analyte/internal standard (IS). The efflux ratio of each compound was calculated. Permeability measurements were performed in duplicate (n = 2) in both directions, and the summarized permeability values and efflux ratios are presented in Figure 3A. The corresponding experimental data, including bidirectional Papp values, recovery, and variability (%CV), are provided in Table S3, thereby supporting the results shown in Figure 3A. After the transport assay, Lucifer yellow fluorescence rejection assay was performed to confirm the integrity of the cell monolayer.

MDR1 (P-gp) = experiment: MDR1-MDCKII permeability assay; format: in vitro ADME; settings: dog, MDCK-MDR1, pH 7.4, MDR1-MDCKII
Experimental: as §1

[1] = read-out: % Recovery (Overall) - Apical to basal
[2] = read-out: % Recovery (Overall) - Basal to Apical

APP, sequence (P05067 18-695 isoform P05067-4): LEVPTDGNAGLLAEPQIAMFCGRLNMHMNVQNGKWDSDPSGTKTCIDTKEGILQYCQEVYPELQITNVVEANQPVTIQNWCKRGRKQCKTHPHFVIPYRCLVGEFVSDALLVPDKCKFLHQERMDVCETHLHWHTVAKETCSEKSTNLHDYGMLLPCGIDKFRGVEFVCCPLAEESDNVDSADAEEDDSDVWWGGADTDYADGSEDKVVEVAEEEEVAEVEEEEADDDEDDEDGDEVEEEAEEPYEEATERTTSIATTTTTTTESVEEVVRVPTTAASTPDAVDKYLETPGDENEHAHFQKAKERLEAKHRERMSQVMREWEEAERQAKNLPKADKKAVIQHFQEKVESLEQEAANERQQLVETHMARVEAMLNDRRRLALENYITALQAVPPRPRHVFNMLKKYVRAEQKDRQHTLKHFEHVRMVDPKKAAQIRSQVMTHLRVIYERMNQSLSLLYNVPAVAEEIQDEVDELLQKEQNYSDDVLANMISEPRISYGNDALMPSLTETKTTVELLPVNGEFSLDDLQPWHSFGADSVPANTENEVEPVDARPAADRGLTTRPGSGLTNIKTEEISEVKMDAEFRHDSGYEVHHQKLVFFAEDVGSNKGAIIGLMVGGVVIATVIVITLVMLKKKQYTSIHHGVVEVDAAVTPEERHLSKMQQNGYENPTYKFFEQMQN
APP, sequence (Q14444 whole entry partner): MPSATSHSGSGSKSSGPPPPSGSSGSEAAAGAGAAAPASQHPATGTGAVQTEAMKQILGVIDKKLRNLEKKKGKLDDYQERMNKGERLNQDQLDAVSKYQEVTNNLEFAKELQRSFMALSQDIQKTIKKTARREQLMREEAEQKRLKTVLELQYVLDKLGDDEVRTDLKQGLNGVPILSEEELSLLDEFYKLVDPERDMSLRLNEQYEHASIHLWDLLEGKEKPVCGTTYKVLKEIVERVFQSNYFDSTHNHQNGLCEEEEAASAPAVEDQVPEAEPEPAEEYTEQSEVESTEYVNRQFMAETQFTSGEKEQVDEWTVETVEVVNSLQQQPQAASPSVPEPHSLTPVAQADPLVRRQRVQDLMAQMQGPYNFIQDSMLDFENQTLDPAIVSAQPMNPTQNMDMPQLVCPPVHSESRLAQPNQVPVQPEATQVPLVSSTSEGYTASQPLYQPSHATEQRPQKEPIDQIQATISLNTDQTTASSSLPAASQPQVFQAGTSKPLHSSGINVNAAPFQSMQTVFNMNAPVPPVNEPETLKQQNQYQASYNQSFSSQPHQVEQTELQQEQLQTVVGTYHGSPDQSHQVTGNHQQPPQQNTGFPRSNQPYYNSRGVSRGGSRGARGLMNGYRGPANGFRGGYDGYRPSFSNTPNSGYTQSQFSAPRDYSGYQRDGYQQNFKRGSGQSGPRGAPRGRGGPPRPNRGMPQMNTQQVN
T1 sequence (P05067 18-695 isoform P05067-4 limits assumed): as the sequence (P05067 18-695 isoform P05067-4) above
T1 sequence (Q14444 2-709 limits assumed): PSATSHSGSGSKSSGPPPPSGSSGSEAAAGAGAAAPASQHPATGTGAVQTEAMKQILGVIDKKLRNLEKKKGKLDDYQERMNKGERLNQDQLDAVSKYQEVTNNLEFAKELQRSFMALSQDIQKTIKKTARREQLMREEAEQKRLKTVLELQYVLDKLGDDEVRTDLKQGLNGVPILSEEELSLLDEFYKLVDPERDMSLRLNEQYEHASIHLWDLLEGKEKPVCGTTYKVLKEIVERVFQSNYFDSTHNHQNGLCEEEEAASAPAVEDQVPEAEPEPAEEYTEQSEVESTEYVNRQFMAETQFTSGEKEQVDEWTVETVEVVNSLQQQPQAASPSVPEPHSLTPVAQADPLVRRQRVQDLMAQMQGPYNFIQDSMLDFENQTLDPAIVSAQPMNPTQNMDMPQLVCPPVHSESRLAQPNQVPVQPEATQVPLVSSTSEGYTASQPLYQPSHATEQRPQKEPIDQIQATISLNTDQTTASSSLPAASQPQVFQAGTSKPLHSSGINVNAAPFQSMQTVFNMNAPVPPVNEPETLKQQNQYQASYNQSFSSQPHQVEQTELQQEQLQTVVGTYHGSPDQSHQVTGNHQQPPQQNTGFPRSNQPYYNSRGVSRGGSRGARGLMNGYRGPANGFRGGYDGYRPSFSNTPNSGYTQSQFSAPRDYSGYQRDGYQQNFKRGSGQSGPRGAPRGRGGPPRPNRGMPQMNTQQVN

SMILES | APP-degrading activity after Bafilomycin A1 pretreatment (APP) | APP-degrading activity after MG132 pretreatment (APP) | APP695-HiBiT levels, dose and time course (APP695‐HiBiT; HEK-APP695-HiBiT cells) | efflux ratio at 2 h, 2 µM (P-gp (MDR1)) | Papp A→B at 2 h, 2 µM (P-gp (MDR1)) [×10⁻⁶ cm/s] | Papp B→A at 2 h, 2 µM (P-gp (MDR1)) [×10⁻⁶ cm/s] | recovery at 2 h, 2 µM (MDR1 (P-gp); [1]) [%] | recovery at 2 h, 2 µM (MDR1 (P-gp); [2]) [%] | Intracellular APP (western blot) (APP; SAD2.3-Ns and AG27606-Ns, 72 h, BI 10 µM) | APP695-HiBiT levels in library screen (APP695‐HiBiT; 10 µM, 24 h, APP695-HiBiT clones, vs DMSO)
COc1cccc(NC(=O)Nc2nc3ccc(C(=O)N4CCOCC4)cc3s2)c1 [compound 0152] | abolished | no effect | dose‐ and time‐dependent reduction in APP695‐HiBiT levels | 78 | 0.5 | 37.4 | 121 | 141 | – | –
N#Cc1cccc(NC(=O)Nc2nc3ccc(C(=O)N4CCOCC4)cc3s2)c1 [compound 0043] | abolished | no effect | – | 114 | 0.4 | 42.6 | 121 | 106 | reduced intracellular APP | more effective
